Broadly, the IC50 is the point on the concentration scale where inhibition reaches its midpoint.

Read-outs that look alike come from different tables or passages of the source.

The subject of experiment [1] is VEGFR2 in HUVEC (human umbilical vein endothelial cells). The experiment in a line: VEGFR2 Cellular Assay (FLIPR, VEGF induced increases in intracellular calcium). It counts as cell-based. The protocol:
VEGFR2 Cellular Assay Automated FLIPR (Fluorometric Imaging Plate Reader) technology was used to screen for inhibitors of VEGF induced increases in intracellular calcium levels in fluorescent dye loaded endothelial cells. HUVEC (human umbilical vein endothelial cells) (Clonetics) were seeded in 384-well fibronectin coated black-walled plates overnight @37° C./5% CO2. Cells were loaded with calcium indicator Fluo-4 for 45 minutes at 37° C. Cells were washed 2 times (EIx405, Biotek Instruments) to remove extracellular dye. For screening, cells were pre-incubated with test agents for 30 minutes, at a single concentration (10 uM) or at concentrations ranging from 0.0001 to 10.0 uM followed by VEGF165 stimulation (10 ng/mL). Changes in fluorescence at 516 nm were measured simultaneously in all 384 wells using a cooled CCD camera. Data were generated by determining max-min fluorescence levels for unstimulated, stimulated, and drug treated samples. IC50 values for test compounds were calculated from % inhibition of VEGF stimulated responses in the absence of inhibitor.
On the technique in general: Calcium assays in cells follow changes in intracellular calcium, usually with a dye or a luminescent sensor.

Experiment [2] deals with purified cytoplasmic domain KDR protein (VEGFR2) (Homo sapiens (Human), UniProt P35968). The experiment in a line: VEGFR2 Kinase Assay. The following applies: 2.7 μM ATP, poly-Glu-Tyr (4:1) substrate, 15 minute incubation at 30° C.; read-out: Enzyme VEGFR2 IC50. It counts as biochemical. The protocol: VEGFR2 Kinase Assay Biochemical KDR kinase assays were performed in 96 well microtiter plates that were coated overnight with 75 μg/well of poly-Glu-[…]:1) in 10 mM Phosphate Buffered Saline (PBS), pH 7.4. […] Reactions were carried out in 100 μL reaction volumes containing 2.7 μM ATP in kinase buffer (50 mM Hepes buffer pH 7.4, 20 mM MgCl2, 0.1 mM MnCl2 and 0.2 mM Na3VO4). […] Reactions were initiated by the addition 20 ul per well of kinase buffer containing 200-300 ng purified cytoplasmic domain KDR protein (BPS Bioscience, San Diego, Calif.). Following a 15 minute incubation at 30° C., the reactions were washed 2 mls per well PBS-T. 100 μl of a monoclonal anti-phosphotyrosine antibody-peroxidase conjugate diluted 1:10,000 in PBS-T was added to the wells for 30 minutes. Following a 2 mls per well wash with PBS-Tween-20, 100 μl of O-Phenylenediamine Dihydrochloride in phosphate-citrate buffer, containing urea hydrogen peroxide, was added to the wells for 7-10 minutes as a colorimetric substrate for the peroxidase. […] IC50 values for compound inhibition were calculated directly from graphs of optical density (arbitrary units) versus compound concentration following subtraction of blank values.

The target of experiment [3] is purified cytoplasmic domain PDGFR-b protein (PDGFRβ) (Homo sapiens (Human), UniProt P09619). The experiment in a line: PDGFRβ Kinase Assay. The class given is biochemical. The following applies: 36 μM ATP, poly-Glu-Tyr (4:1) substrate, 60 minute incubation at 30° C.; read-out: Enzyme PDGFβ IC50. As to the method: Biochemical PDGFRβ kinase assays were performed in 96 well microtiter plates that were coated overnight with 75 μg of poly-Glu-Tyr (4:1) in 10 mM Phosphate Buffered Saline (PBS), pH 7.4. […] Reactions were carried out in 100 μL reaction volumes containing 36 μM ATP in kinase buffer (50 mM Hepes buffer pH 7.4, 20 mM MgCl2, 0.1 mM MnCl2 and 0.2 mM Na3VO4). […] Reactions were initiated by the addition 20 ul per well of kinase buffer containing 200-300 ng purified cytoplasmic domain PDGFR-b protein (Millipore). Following a 60 minute incubation at 30° C., the reactions were washed 2 mls per well PBS-T. 100 μl of a monoclonal anti-phosphotyrosine antibody-peroxidase conjugate diluted 1:10,000 in PBS-T was added to the wells for 30 minutes. Following a 2 mls per well wash with PBS-Tween-20, 100 μl of O-Phenylenediamine Dihydrochloride in phosphate-citrate buffer, containing urea hydrogen peroxide, was added to the wells for 7-10 minutes as a colorimetric substrate for the peroxidase. […] IC50 values for compound inhibition were calculated directly from graphs of optical density (arbitrary units) versus compound concentration following subtraction of blank values.

Where [4] appears, read: read-out: Receptor VEGFR2 IC50 (nM).

purified cytoplasmic domain PDGFR-b protein (PDGFRβ), sequence (P09619 554-1106): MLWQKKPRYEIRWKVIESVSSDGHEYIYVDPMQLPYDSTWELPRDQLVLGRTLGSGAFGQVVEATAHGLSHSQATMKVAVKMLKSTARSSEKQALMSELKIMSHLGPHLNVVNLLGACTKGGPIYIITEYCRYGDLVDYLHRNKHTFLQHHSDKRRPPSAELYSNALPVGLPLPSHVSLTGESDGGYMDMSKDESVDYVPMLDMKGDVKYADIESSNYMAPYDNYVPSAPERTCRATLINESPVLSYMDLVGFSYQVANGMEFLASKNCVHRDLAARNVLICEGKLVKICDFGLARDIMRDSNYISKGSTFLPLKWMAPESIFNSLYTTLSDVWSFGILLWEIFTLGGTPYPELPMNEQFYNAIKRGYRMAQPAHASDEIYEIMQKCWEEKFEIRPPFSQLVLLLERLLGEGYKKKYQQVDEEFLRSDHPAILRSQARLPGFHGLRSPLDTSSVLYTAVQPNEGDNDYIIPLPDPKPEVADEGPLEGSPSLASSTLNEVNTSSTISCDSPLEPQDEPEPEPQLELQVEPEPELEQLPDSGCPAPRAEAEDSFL
purified cytoplasmic domain KDR protein (VEGFR2), sequence (P35968 786-1356): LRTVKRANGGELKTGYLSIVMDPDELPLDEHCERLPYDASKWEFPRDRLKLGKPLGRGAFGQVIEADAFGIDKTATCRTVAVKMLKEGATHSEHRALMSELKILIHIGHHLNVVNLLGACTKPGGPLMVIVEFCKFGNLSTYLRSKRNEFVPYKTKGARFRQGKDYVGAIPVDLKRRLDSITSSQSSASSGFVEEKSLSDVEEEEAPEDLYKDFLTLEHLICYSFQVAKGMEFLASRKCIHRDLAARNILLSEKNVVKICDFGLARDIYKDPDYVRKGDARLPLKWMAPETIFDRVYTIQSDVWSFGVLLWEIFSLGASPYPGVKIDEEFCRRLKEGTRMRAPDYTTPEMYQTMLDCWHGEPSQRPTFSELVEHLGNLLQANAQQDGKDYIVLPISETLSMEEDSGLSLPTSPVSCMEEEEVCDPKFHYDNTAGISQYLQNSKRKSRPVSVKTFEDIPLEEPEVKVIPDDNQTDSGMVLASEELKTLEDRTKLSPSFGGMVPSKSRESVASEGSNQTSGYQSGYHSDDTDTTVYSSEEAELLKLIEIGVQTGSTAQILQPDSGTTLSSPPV

For `CCc1cccc(NC(=O)Nc2ccc(-c3cc4ccccc4n3C(N)=O)cc2)c1` [Example 1, 2-[4-({[(3-ethylphenyl)amino]carbonyl}amino)phenyl]-1H-indole-1-carboxamide], the IC50 in experiment [1] (setting [4]) was 13 nM. As to `COC(=O)c1ccc2cc(-c3ccc(NC(=O)Nc4cccc(C)c4)cc3)n(C(N)=O)c2c1` [Example 2, methyl 1-(aminocarbonyl)-2-[4-({[(3-methylphenyl)amino]carbonyl}amino)phenyl]-1H-indole-6-carboxylate], the results for the IC50 in experiment [2], in experiment [1] (setting [4]) and in experiment [3] were 5 nM, 11 nM and 10 nM, respectively. On to `Cc1cccc(NC(=O)Nc2ccc(-c3cc4ccccc4n3C(N)=O)cc2)c1` [Example 3, 2-[4-({[(3-methylphenyl)amino]carbonyl}amino)phenyl]-1H-indole-1-carboxamide], for which the half-maximal inhibitory concentration (IC50) in experiment [2] turned out to be 6 nM; in experiment [1] (setting [4]), 17 nM; in experiment [3], 14 nM. Take `NC(=O)n1c(-c2ccc(NC(=O)Nc3ccc(F)c(Cl)c3)cc2)cc2ccccc21` [Example 5, 2-[4-({[(3-chloro-4-fluorophenyl)amino]carbonyl}amino)phenyl]-1H-indole-1-carboxamide]: in experiment [3], the IC50 turned out to be 19 nM. Regarding `NC(=O)n1c(-c2ccc(NC(=O)Nc3cccc(C(F)(F)F)c3)cc2)cc2ccccc21` [Example 6, 2-{4-[({[3-(trifluoromethyl)phenyl]amino}carbonyl)amino]phenyl}-1H-indole-1-carboxamide], the 50% inhibitory concentration (IC50) is 9 nM in experiment [2], 58 nM in experiment [1] (setting [4]) and 28 nM in experiment [3].

`Cc1ccc(F)c(NC(=O)Nc2ccc(-c3cc4ccccc4n3C(N)=O)cc2)c1` [Example 7, 2-[4-({[(2-fluoro-5-methylphenyl)amino]carbonyl}amino)phenyl]-1H-indole-1-carboxamide]: the half-maximal inhibitory concentration (IC50) was 9 nM in experiment [2], 41 nM in experiment [1] (setting [4]) and 20 nM in experiment [3]. `COc1cccc(NC(=O)Nc2ccc(-c3cc4ccccc4n3C(N)=O)cc2)c1` [Example 8, 2-[4-({[(3-methoxyphenyl)amino]carbonyl}amino)phenyl]-1H-indole-1-carboxamide]: the IC50 in experiment [2] was determined as 11 nM; in experiment [1] (setting [4]), 45 nM; in experiment [3], 12 nM. With `NC(=O)n1c(-c2ccc(NC(=O)Nc3cc(C(F)(F)F)ccc3F)cc2)cc2ccccc21` [Example 9, 2-{4-[({[2-fluoro-5-(trifluoromethyl)phenyl]amino}carbonyl)amino]phenyl}-1H-indole-1-carboxamide], the 50% inhibitory concentration (IC50) in experiment [3] came out at 55 nM. `NC(=O)n1c(-c2ccc(NC(=O)Nc3ccccc3)cc2)cc2ccccc21` [Example 10, 2-{4-[(anilinocarbonyl)amino]phenyl}-1H-indole-1-carboxamide]: the 50% inhibitory concentration (IC50) in experiment [2] was found to be 22 nM; in experiment [1] (setting [4]), 150 nM; in experiment [3], 23 nM. As for `Cc1ccc(NC(=O)Nc2ccc(-c3cc4ccccc4n3C(N)=O)cc2)cc1` [Example 11, 2-[4-({[(4-methylphenyl)amino]carbonyl}amino)phenyl]-1H-indole-1-carboxamide], the IC50 in experiment [2] is 23 nM; in experiment [1] (VEGF165 stimulation (10 ng/mL), 30 minutes pre-incubation, Fluo-4 calcium, read-out: Receptor VEGFR2 IC50), above 10000 nM; in experiment [3] it was 11 nM.

For the molecule `Cc1ccccc1NC(=O)Nc1ccc(-c2cc3ccccc3n2C(N)=O)cc1` [Example 12, 2-[4-({[(2-methylphenyl)amino]carbonyl}amino)phenyl]-1H-indole-1-carboxamide], the figures for the 50% inhibitory concentration (IC50) in experiment [2] and in experiment [3] were 174 nM and 118 nM, respectively. For the molecule `Cc1cccc(NC(=O)Nc2cccc(-c3cc4ccccc4n3C(N)=O)c2)c1` [Example 19, 2-[3-({[(3-methylphenyl)amino]carbonyl}amino)phenyl]-1H-indole-1-carboxamide], the IC50 in experiment [2] is 276 nM.

`CCc1cccc(NC(=O)Nc2cccc(-c3cc4ccccc4n3C(N)=O)c2)c1` [Example 20, 2-[3-({[(3-ethylphenyl)amino]carbonyl}amino)phenyl]-1H-indole-1-carboxamide]: the IC50 in experiment [2] was determined as 240 nM. For the molecule `NC(=O)n1c(-c2cccc(NC(=O)Nc3cccc(C(F)(F)F)c3)c2)cc2ccccc21` [Example 21, 2-{3-[({[3-(trifluoromethyl)phenyl]amino}carbonyl)amino]phenyl}-1H-indole-1-carboxamide], the concentration for half-maximal inhibition (IC50) in experiment [2] was found to be 254 nM; in experiment [3], 3310 nM. For the molecule `NC(=O)n1c(-c2cccc(NC(=O)Nc3ccc(F)c(Cl)c3)c2)cc2ccccc21` [Example 22, 2-[3-({[(3-chloro-4-fluorophenyl)amino]carbonyl}amino)phenyl]-1H-indole-1-carboxamide], the half-maximal inhibitory concentration (IC50) was 249 nM in experiment [2] and above 10000 nM in experiment [3]. With `Cc1ccc(F)c(NC(=O)Nc2cccc(-c3cc4ccccc4n3C(N)=O)c2)c1` [Example 23, 2-[3-({[(2-fluoro-5-methylphenyl)amino]carbonyl}amino)phenyl]-1H-indole-1-carboxamide], the concentration for half-maximal inhibition (IC50) in experiment [2] turned out to be 334 nM; in experiment [3], 3030 nM. As to `Cc1cccc(C(=O)Nc2cccc(-c3cc4ccccc4n3C(N)=O)c2)c1` [Example 24, 2-{3-[(3-methylbenzoyl)amino]phenyl}-1H-indole-1-carboxamide], the IC50 in experiment [2] amounted to 1170 nM. With `Cc1cccc(NC(=O)Nc2csc(-c3cc4ccccc4n3C(N)=O)c2)c1` [Example 26, 2-[4-({[(3-methylphenyl)amino]carbonyl}amino)-2-thienyl]-1H-indole-1-carboxamide], the IC50 in experiment [3] came to 1140 nM. Consider `NC(=O)n1c(-c2cc(NC(=O)Nc3cccc(C(F)(F)F)c3)cs2)cc2ccccc21` [Example 27, 2-{4-[({[3-(trifluoromethyl)phenyl]amino}carbonyl)amino]-2-thienyl}-1H-indole-1-carboxamide], for which the half-inhibitory concentration (IC50) in experiment [3] was determined as 152 nM.

On to `CCc1cccc(NC(=O)Nc2csc(-c3cc4ccccc4n3C(N)=O)c2)c1` [Example 28, 2-[4-({[(3-ethylphenyl)amino]carbonyl}amino)-2-thienyl]-1H-indole-1-carboxamide], for which the concentration for half-maximal inhibition (IC50) turned out to be 60 nM in experiment [2] and 264 nM in experiment [3]. Consider `Cc1ccc(F)c(NC(=O)Nc2csc(-c3cc4ccccc4n3C(N)=O)c2)c1` [Example 29, 2-[4-({[(2-fluoro-5-methylphenyl)amino]carbonyl}amino)-2-thienyl]-1H-indole-1-carboxamide], for which the IC50 in experiment [2] amounted to 94 nM; in experiment [3], 4610 nM. With `NC(=O)n1c(-c2cc(NC(=O)Nc3ccc(F)c(Cl)c3)cs2)cc2ccccc21` [Example 30, 2-[4-({[(3-chloro-4-fluorophenyl)amino]carbonyl}amino)-2-thienyl]-1H-indole-1-carboxamide], the IC50 in experiment [2] was 83 nM; in experiment [3] it was above 10000 nM. `NC(=O)n1c(-c2cc(NC(=O)Nc3ccc(Cl)c(C(F)(F)F)c3)cs2)cc2ccccc21` [Example 31, 2-{4-[({[4-chloro-3-(trifluoromethyl)phenyl]amino}carbonyl)amino]-2-thienyl}-1H-indole-1-carboxamide]: the IC50 in experiment [3] was 151 nM. Regarding `Cc1ccoc1C(=O)Nc1csc(-c2cc3ccccc3n2C(N)=O)c1` [Example 32, 2-{4-[(3-methyl-2-furoyl)amino]-2-thienyl}-1H-indole-1-carboxamide], the IC50 in experiment [2] is 3180 nM; in experiment [3], above 10000 nM. For the molecule `Cc1ccc(F)c(C(=O)Nc2csc(-c3cc4ccccc4n3C(N)=O)c2)c1` [Example 33, 2-{4-[(2-fluoro-5-methylbenzoyl)amino]-2-thienyl}-1H-indole-1-carboxamide], the IC50 in experiment [2] is 3650 nM; in experiment [3] it was above 10000 nM.

For the origin of these results see patent publication US9353093B2, “Indole-1-carboxamides as kinase inhibitors” (Allergan, Inc., priority 2014, dated 2016).
